Laboratory results taken from patent US20260001914A1, “MACROCYCLIC PEPTIDES TARGETING KRAS” (Merck Sharp & Dohme LLC, priority 2022, published 2026).
*1 amine or outer side, *2 acyl side, *3 side chain or, on linkers, in order; H or OH if unused. Where a SMILES comes first, the peptide text is derived from it. [ ]: non-standard residue; d: D form. cBu(1-CO,cis-3-CH2NH) = O=C([C@H]1C[C@@H](CN[*:1])C1)[*:2]; Phe(4-guanidino) = N=C(N)Nc1ccc(C[C@H](N)C(=O)O)cc1; X60 = O=C([C@H](Cc1ccc(NC2=NCCN2)cc1)N[*:1])[*:2]; Ala(pyrimidin-5-yl) = N[C@@H](Cc1cncnc1)C(=O)O; X25 = O=C([C@H](Cc1ccc(F)nc1)N[*:1])[*:2]; NMeNva(5,5-F2) = CN[C@@H](CCC(F)F)C(=O)O; X62 = O=C([C@@H]1CC[C@H](N[*:1])C1)[*:2]; X69 = O=C([C@H]1CC[C@@H](N[*:1])C1)[*:2]; X11 = CC(C)(F)CC[C@H](N[*:1])C(=O)[*:2]; X13 = O=C([C@H](Cc1ccncc1F)N[*:1])[*:2]; X15 = O=C([C@H](Cc1cnccc1F)N[*:1])[*:2]; X30 = O=C([C@H](Cc1ncccc1F)N[*:1])[*:2]; X46 = O=C([C@H](Cc1cccnc1F)N[*:1])[*:2]; Nle(5,5-F2) = CC(F)(F)CC[C@H](N)C(=O)O; 1Nal = N[C@@H](Cc1cccc2ccccc12)C(=O)O; X35 = CN([C@@H](CCCF)C(=O)[*:2])[*:1]; Phe(2-F) = N[C@@H](Cc1ccccc1F)C(=O)O; X1 = O=C(C12CC(CN[*:1])(C1)C2)[*:2]; NMeCha = CN[C@@H](CC1CCCCC1)C(=O)O; Ala(cPr) = N[C@@H](CC1CC1)C(=O)O; NMeF = CN[C@@H](Cc1ccccc1)C(=O)O; PhLac = O=C(O)[C@@H](O)Cc1ccccc1; X79 = O=C(C1CCC(N[*:1])CC1)[*:2]; 3Pal = N[C@@H](Cc1cccnc1)C(=O)O; Ahp(2) = CCCCC[C@H](N)C(=O)O; Cba = N[C@@H](CC1CCC1)C(=O)O; hLeu = CC(C)CC[C@H](N)C(=O)O; NMeA = CN[C@@H](C)C(=O)O; Nle = CCCC[C@H](N)C(=O)O

biological target: KRAS-G12D protein (Homo sapiens, UniProt P01116, G12D); assay: SOS-mediated nucleotide exchange assay (BODIPY-GDP / Tb-streptavidin TR-FRET); format: biochemical
Sequence (P01116 1-188 isoform P01116-2 G12D): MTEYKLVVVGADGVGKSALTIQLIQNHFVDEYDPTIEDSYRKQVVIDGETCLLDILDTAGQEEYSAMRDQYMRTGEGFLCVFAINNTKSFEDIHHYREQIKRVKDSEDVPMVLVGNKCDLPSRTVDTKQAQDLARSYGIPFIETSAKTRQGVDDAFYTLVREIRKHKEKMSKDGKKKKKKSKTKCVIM

| SMILES | EC50 [nM] |
| --- | --- |
| CCCC[C@@H]1NC(=O)[C@H](Cc2ccc(NC(=N)N)cc2)NC(=O)[C@H](CCCNC(=N)N)NC(=O)[C@H](Cc2cccc3ccccc23)NC(=O)CNC(=O)[C@H](C)NC(=O)[C@H](Cc2ccccc2)N(C)C(=O)[C@H](CCCC)NC(=O)[C@H](Cc2ccc(O)cc2)NC1=O [compound 199, cyclo(INal-R-Phe4Gn-Nle-Y-Nle-NMeF-A-G)] (cyclo([1Nal]R[Phe(4-guanidino)][Nle]Y[Nle][NMeF]AG)) | 346 |
| CCCC[C@@H]1NC(=O)[C@H](Cc2ccc(NC(=N)N)cc2)NC(=O)[C@H](CCCNC(=N)N)NC(=O)[C@H](Cc2cccc3ccccc23)NC(=O)CNC(=O)[C@@H](C)NC(=O)[C@H](Cc2ccccc2)N(C)C(=O)[C@H](CCCC)NC(=O)[C@H](Cc2ccc(O)cc2)NC1=O [compound 200, cyclo(1Nal-R-Phe4Gn-Nle-Y-Nle-NMeF-dA-G)] (cyclo([1Nal]R[Phe(4-guanidino)][Nle]Y[Nle][NMeF][dA]G)) | 52.9 |
| CCCC[C@@H]1NC(=O)[C@H](Cc2cccnc2)NC(=O)[C@H](CCCNC(=N)N)NC(=O)[C@H](Cc2ccccc2)NC(=O)C2CCC(CC2)NC(=O)[C@H](Cc2ccccc2)N(C)C(=O)[C@H](CCCC)NC(=O)[C@H](Cc2ccc(OC)cc2)NC1=O [compound 201, cyclo(F-R-3Pal-Nle-TyrOMe-Nle-NMeF-cHxclacid4NH2)] (cyclo([3Pal][Nle]Y(Me)[Nle][NMeF][X79]FR)) | 256 |
| CCCC[C@@H]1NC(=O)[C@H](Cc2cccnc2)NC(=O)[C@H](CCCNC(=N)N)NC(=O)[C@H](Cc2ccccc2)NC(=O)[C@H]2CC[C@H](C2)NC(=O)[C@H](Cc2ccccc2)N(C)C(=O)[C@H](CCCC)NC(=O)[C@H](Cc2ccc(OC)cc2)NC1=O [compound 202, cyclo(F-R-3Pal-Nle-TyrOMe-Nle-NMeF-dbhcLeu)] (cyclo(FR[3Pal][Nle]Y(Me)[Nle][NMeF][X69])) | 949 |
| CCCC[C@@H]1NC(=O)[C@H](Cc2cccnc2)NC(=O)[C@H](CCCNC(=N)N)NC(=O)[C@H](Cc2ccccc2)NC(=O)[C@@H]2CC[C@@H](C2)NC(=O)[C@H](Cc2ccccc2)N(C)C(=O)[C@H](CCCC)NC(=O)[C@H](Cc2ccc(OC)cc2)NC1=O [compound 203, cyclo(F-R-3Pal-Nle-TyrOMe-Nle-NMeF-bhcLeu)] (cyclo(FR[3Pal][Nle]Y(Me)[Nle][NMeF][X62])) | 193 |
| CCCC[C@@H]1NC(=O)[C@H](Cc2ccc(NC3=NCCN3)cc2)NC(=O)[C@H](CCCNC(=N)N)NC(=O)[C@H](Cc2ccccc2)NC(=O)[C@H]2C[C@@H](CNC(=O)[C@H](Cc3ccccc3)N(C)C(=O)[C@H](CCCC)NC(=O)[C@H](Cc3ccc(OC)cc3)NC1=O)C2 [compound 207, cyclo(F-R-Phe4Gnc2-Nle-TyrOMe-Nle-NMeF-c3amCblc)] (cyclo(FR[X60][Nle]Y(Me)[Nle][NMeF][cBu(1-CO,cis-3-CH2NH)])) | 15.6 |
| CCCCC[C@@H]1NC(=O)[C@H](Cc2ccc(OC)cc2)NC(=O)[C@H](CC2CCC2)NC(=O)[C@H](Cc2cccnc2)NC(=O)[C@H](CCCNC(=N)N)NC(=O)[C@H](Cc2ccccc2)OC(=O)C23CC(CNC(=O)[C@H](Cc4ccccc4)N(C)C1=O)(C2)C3 [compound 211, cyclo(FLac-R-3Pal-cBuA-TyrOMe-Ahp-NMeF-amBCP)] (cyclo([PhLac]R[3Pal][Cba]Y(Me)[Ahp(2)][NMeF][X1])) | 10.8 |
| CCCC[C@@H]1NC(=O)[C@H](Cc2cccnc2)NC(=O)[C@H](CCCNC(=N)N)NC(=O)[C@H](Cc2ccccc2)OC(=O)C23CC(CNC(=O)[C@H](Cc4ccccc4)N(C)C(=O)[C@H](CCCC)NC(=O)[C@H](Cc4ccccc4F)NC1=O)(C2)C3 [compound 212, cyclo(FLac-R-3Pal-Nle-Phe2F-Nle-NMeF-amBCP)] (cyclo([PhLac]R[3Pal][Nle][Phe(2-F)][Nle][NMeF][X1])) | 20.7 |
| CC(C)CC[C@@H]1NC(=O)[C@H](Cc2cnccc2F)NC(=O)[C@H](CC2CC2)NC(=O)[C@H](Cc2cncnc2)NC(=O)[C@H](C)N(C)C(=O)[C@H](Cc2ccccc2)OC(=O)C23CC(CNC(=O)[C@H](Cc4ccccc4)N(C)C1=O)(C2)C3 [compound 213, cyclo(FLac-NMcA-PyrimAla-cPrA-3Pal6F-hL-NMeF-amBCP)] (cyclo([Ala(cPr)][X15][hLeu][NMeF][X1][PhLac][NMeA][Ala(pyrimidin-5-yl)])) | 3.72 |
| CC(C)CC[C@@H]1NC(=O)[C@H](Cc2ccncc2F)NC(=O)[C@H](CC2CC2)NC(=O)[C@H](Cc2cncnc2)NC(=O)[C@H](C)N(C)C(=O)[C@H](Cc2ccccc2)OC(=O)C23CC(CNC(=O)[C@H](Cc4ccccc4)N(C)C1=O)(C2)C3 [compound 214, cyclo(FLac-NMeA-PyrimAla-cPrA-4Pal2F-hL-NMeF-amBCP)] (cyclo([Ala(cPr)][X13][hLeu][NMeF][X1][PhLac][NMeA][Ala(pyrimidin-5-yl)])) | 2.69 |
| CC(C)CC[C@@H]1NC(=O)[C@H](Cc2cccnc2F)NC(=O)[C@H](CC2CC2)NC(=O)[C@H](Cc2cncnc2)NC(=O)[C@H](C)N(C)C(=O)[C@H](Cc2ccccc2)OC(=O)C23CC(CNC(=O)[C@H](Cc4ccccc4)N(C)C1=O)(C2)C3 [compound 215, cyclo(FLac-NMeA-PyrimAla-cPrA-3Pal2F-hL-NMeF-amBCP)] (cyclo([Ala(cPr)][X46][hLeu][NMeF][X1][PhLac][NMeA][Ala(pyrimidin-5-yl)])) | 31 |
| CC(C)CC[C@@H]1NC(=O)[C@H](Cc2ccccc2F)NC(=O)[C@H](CC2CC2)NC(=O)[C@H](Cc2cncnc2)NC(=O)[C@H](CCCF)N(C)C(=O)[C@H](Cc2ccccc2)OC(=O)C23CC(CNC(=O)[C@H](Cc4ccccc4)N(C)C1=O)(C2)C3 [compound 216, cyclo(FLac-NMeNvaF-PyrimAla-cPrA-Phe2F-hL-NMeF-amBCP)] (cyclo([Ala(cPr)][Phe(2-F)][hLeu][NMeF][X1][PhLac][X35][Ala(pyrimidin-5-yl)])) | 26 |
| CC(C)CC[C@@H]1NC(=O)[C@H](Cc2ccccc2F)NC(=O)[C@H](CC2CC2)NC(=O)[C@H](Cc2cncnc2)NC(=O)[C@H](CCC(F)F)N(C)C(=O)[C@H](Cc2ccccc2)OC(=O)C23CC(CNC(=O)[C@H](Cc4ccccc4)N(C)C1=O)(C2)C3 [compound 217, cyclo(FLac-NMeNvaF2-PyrimAla-cPrA-Phe2F-hL-NMeF-amBCP)] (cyclo([Ala(cPr)][Phe(2-F)][hLeu][NMeF][X1][PhLac][NMeNva(5,5-F2)][Ala(pyrimidin-5-yl)])) | 173 |
| C[C@H]1C(=O)N[C@@H](Cc2cncnc2)C(=O)N[C@@H](CC2CCC2)C(=O)N[C@@H](Cc2ccccc2F)C(=O)N[C@@H](CCC(C)(F)F)C(=O)N(C)[C@@H](Cc2ccccc2)C(=O)NCC23CC(C2)(C3)C(=O)O[C@@H](Cc2ccccc2)C(=O)N1C [compound 224, cyclo(FLac-NMcA-PyrimAla-cBuA-Phe2F-Nle3F2-NMeF-amBCP)] (cyclo([Cba][Phe(2-F)][Nle(5,5-F2)][NMeF][X1][PhLac][NMeA][Ala(pyrimidin-5-yl)])) | 2.39 |
| C[C@H]1C(=O)N[C@@H](Cc2cncnc2)C(=O)N[C@@H](CC2CCC2)C(=O)N[C@@H](Cc2ccccc2F)C(=O)N[C@@H](CCC(C)(C)F)C(=O)N(C)[C@@H](Cc2ccccc2)C(=O)NCC23CC(C2)(C3)C(=O)O[C@@H](Cc2ccccc2)C(=O)N1C [compound 225, cyclo(FLac-NMeA-PyrimAla-cBuA-Phe2F-hL3F-NMeF-amBCP)] (cyclo([Cba][Phe(2-F)][X11][NMeF][X1][PhLac][NMeA][Ala(pyrimidin-5-yl)])) | 1.87 |
| CCCCC[C@@H]1NC(=O)[C@H](Cc2ccc(OC)cc2)NC(=O)[C@H](CC2CCC2)NC(=O)[C@H](Cc2cccnc2)NC(=O)[C@H](C)N(C)C(=O)[C@H](Cc2ccccc2)OC(=O)C23CC(CNC(=O)[C@H](Cc4ccccc4)N(C)C1=O)(C2)C3 [compound 227, cyclo(FLac-NMeA-3Pal-cBuA-TyrOMe-Ahp-NMeF-amBCP)] (cyclo([3Pal][Cba]Y(Me)[Ahp(2)][NMeF][X1][PhLac][NMeA])) | 37.9 |
| CCCC[C@@H]1NC(=O)[C@H](Cc2ccc(F)nc2)NC(=O)[C@H](C)N(C)C(=O)[C@H](Cc2ccccc2)OC(=O)C23CC(CNC(=O)[C@H](Cc4ccccc4)N(C)C(=O)[C@H](CCCC)NC(=O)[C@H](Cc4ncccc4F)NC1=O)(C2)C3 [compound 228, cyclo(FLac-NMeA-4F3Pal-Nle-2Pal6F-Nle-NMeF-amBCP)] (cyclo([NMeA][X25][Nle][X30][Nle][NMeF][X1][PhLac])) | 870 |
| CCCC[C@@H]1NC(=O)[C@H](Cc2cncnc2)NC(=O)[C@H](C)N(C)C(=O)[C@H](Cc2ccccc2)OC(=O)C23CC(CNC(=O)[C@H](Cc4ccccc4)N(C)C(=O)[C@H](CCCC)NC(=O)[C@H](Cc4ncccc4F)NC1=O)(C2)C3 [compound 229, cyclo(FLac-NMeA-PyrimAla-Nle-2Pal6F-Nle-NMeF-amBCP)] (cyclo([NMeA][Ala(pyrimidin-5-yl)][Nle][X30][Nle][NMeF][X1][PhLac])) | 559 |
| CCCC[C@@H]1NC(=O)[C@H](Cc2cncnc2)NC(=O)[C@H](C)N(C)C(=O)[C@H](Cc2ccccc2)OC(=O)C23CC(CNC(=O)[C@H](Cc4ccccc4)N(C)C(=O)[C@H](CCCC)NC(=O)[C@H](Cc4ccccc4F)NC1=O)(C2)C3 [compound 230, cyclo(FLac-NMeA-PyrimAla-Nle-Phe2F-Nle-NMeF-amBCP)] (cyclo([NMeA][Ala(pyrimidin-5-yl)][Nle][Phe(2-F)][Nle][NMeF][X1][PhLac])) | 17.4 |
| CCCC[C@@H]1NC(=O)[C@H](Cc2ccc(F)nc2)NC(=O)[C@H](C)N(C)C(=O)[C@H](Cc2ccccc2)OC(=O)C23CC(CNC(=O)[C@H](Cc4ccccc4)N(C)C(=O)[C@H](CCCC)NC(=O)[C@H](Cc4ccccc4F)NC1=O)(C2)C3 [compound 231, cyclo(FLac-NMeA-4F3Pal-Nle-Phe2F-Nle-NMeF-amBCP)] (cyclo([NMeA][X25][Nle][Phe(2-F)][Nle][NMeF][X1][PhLac])) | 72.4 |
| CCCC[C@@H]1NC(=O)[C@H](Cc2cccnc2)NC(=O)[C@H](C)N(C)C(=O)[C@H](Cc2ccccc2)OC(=O)C23CC(CNC(=O)[C@H](CC4CCCCC4)N(C)C(=O)[C@H](CCCC)NC(=O)[C@H](Cc4ccccc4F)NC1=O)(C2)C3 [compound 232, cyclo(FLac-NMeA-3Pal-Nle-Phe2F-Nle-NMeCha-amBCP)] (cyclo([3Pal][Nle][Phe(2-F)][Nle][NMeCha][X1][PhLac][NMeA])) | 2930 |
